Test results: patent EP2229935A1, “Peptide derivatives or pharmaceutically acceptable salts thereof, method for producing the same, use of said derivatives and pharmaceutical composition” (Nebolsin, Vladimir Evgenievich, priority 1997, dated 1999)

Experiments:
mongrel female rats = assay: Hepatoprotective activity: subchronic liver lesion (hepatitis) with CCl4; format: in vivo; conditions: for Cholesterol level, mg/100 ml VLDL-CS / Cholesterol level, mg/100 ml LDL-CS / Cholesterol level, mg/100 ml HDL-CS / Cholesterol level, mg/100 ml total-CS / TG level, mg/100ml / ALT, nM/dl / AST, nM/dl / Hepatic MDA, nM/l / Serum MDA, nM/l: rats, CCl4 hepatitis; for Cholesterol level, mg/100 ml VLDL-CS / Cholesterol level, mg/100 ml LDL-CS / Cholesterol level, mg/100 ml HDL-CS / Cholesterol level, mg/100 ml total-CS / TG level, mg/100ml / ALT, nM/dl / AST, nM/dl: blood serum; for Cholesterol level, mg/100 ml VLDL-CS: TG/5; for Cholesterol level, mg/100 ml LDL-CS: calculated by formula; for ALT, nM/dl / AST, nM/dl: oral 8 days
Method: Hepatoprotective properties of the compounds were studied on a model of subchronic liver lesion (hepatitis) with carbon quadrichloride.
70 mongrel female rats with initial body mass 190-200 g fed a standard vivarium ration, were used in experiment. Animals were divided into 7 groups (10 rats each): • Group 1 - control one; during the first four days of experiment animals were subcutaneously injected 0.2 ml vaseline oil; • Group 2 - during the first four days animals were subcutaneously injected 50% CCl4 solution in vaseline oil at a rate of 0.1 ml per 100 g body mass; • Group 3 - Legalon in a starch gel was administered orally for 8 days at a dose 30 mg/kg against the background of CCl4 administration; […] , resepectively, was administered in a way similar to group III; […] , resepectively, was administered in a way similar to group III.
The test compounds and Legalon were administered to animals 1 hour prior to CCl4 administration. 24 hours after the last administration of the drugs, animals were decapitated.
Activity of blood serum transaminases ALT and AST was assessed using the conventional Frenkel-Rightman method [Laboratory examination methods in the clinic. Ed. by Menshikov V.V. Moscow, Meditsina publishers (1969), 302 pp.].
The published method [Rodionova L.P. Modification of blood serum trigyceride level determination method. Laboratomoye delo (Laboratory Matter) (1980), No 5, pp. 297-299] was used to determine blood serum TG level.
Blood serum LP final product MDA was determined using the published method [Korobeinikova E.N. Modification of lipid peroxydation product determination in reaction with thiobarbituric acid. Laboratomoye delo (Laboratory Matter) (1989), No 7, pp. 8-10]. Concentration of TBA-active products was calculated using regression equation: C = 0.21 + 0.26D, [formula] where C - concentration of TBA-active products (in nM MDA per 1 ml of serum), D - index D535 -D580 (in optic density units).
Total hepatic lipids were extracted using the modified Folch method [Cates M. Technology of Lipidology. Moscow, Mir publishers (1975), pp. 74-76]. Quantative content of lipid fractions was assessed with thin layer chromatography method (TLC) using the system of solvents hexane:diethyl ether:acetic acid at ratio 80:20:2. Zones of individual lipid fractions were determined using 10% alcohol solution of phosphoromolyobdenic acid which following elution were spectrophotometrically analysed at 600 nm.
Hepatic MDA level was determined using the published method [Stalnaya I.D., Garishvili T.G. Malonic dialdehyde determination method using thiobarbituric acid. In: Modem methods in biochemistry. Moscow, Meditsina publishers (1977), pp. 66-69]. MDA quantity was calculated using molar extinction coefficient value of stained trimethynic complex formed by MDA with two TBA molecules: E = 1.56 × 10^5 (cm)^-1 × M^-1 [formula]

Human lymphocytes = assay: Concanavalin A-induced blasttransformation of lymphocytes; format: cell-based
Method: Human lymphocytes were used for blasttransformation reaction [Kiseleva E.P., Tsveibakh A.S., Goldman E.I., Pigareva N.V. Application of a micromethod to study blasttransformation of lymphocytes in humans and animals. Immunology (1985), No 1, pp. 76-78]. 10 ml blood were collected into a sterile syringe containing heparine (to final concentration 25 U/ml) and incubated to sediment red blood cells (60-90 minutes at 37°C). Leukocytic suspension layer was selected and the number of nucleated cells was calculated. The cells obtained in such a way were incubated for 72 hours in a humid atmosphere with 5% CO2 at 37°C in the cells of plates for immune reactions in RPMI-1640 medium comprising 15% fetal calf serum, […] Neomycine (incubation mixture volume 0.15 ml). 5 x 10^5 cells were introduced into each plate cell. Incubation was carried out in the presence or absence of mitogen phytohemagglutinin (PHA) (Sigma) […] or concanavalin A (ConA) (Sigma) […] with or without addition of the test compounds at different concentrations. […] H^3 -thymidine in RPMI-1640 medium were introduced into each cell 16 hours before incubation termination. Following culturing period termination, 0.15 ml cellular suspension from each plate cell were transferred on the FN-8 paper filters. Filters were dried, washed two times with normal saline for 5 minutes then twice with TCA for 60 minutes. After drying, radioactivity of samples was calculated on a counter in the ZhS-8 scintillator. Stimulation index was calculated as ratio of sample radioactivity with mitogen to sample radioactivity without mitogen.

O=C(O)CCCC(=O)NCCc1c[nH]cn1 [compound III, N-GLUTARYLHISTAMINE]
Lipid composition (in percent of total lipids) FCS (mongrel female rats; 5e-05 mg/kg): 20.3 ± 0.8 p<0.05% of total lipids | Lipid composition (in percent of total lipids) Phospholipids (mongrel female rats; 5e-05 mg/kg): 24.4 ± 0.7 p<0.05% of total lipids | Lipid composition (in percent of total lipids) Triglycerides (mongrel female rats; 5e-05 mg/kg): 35.5 ±1.1% of total lipids | Lipid composition (in percent of total lipids) FCS (mongrel female rats; 0.0005 mg/kg): 18.9 ± 0.7% of total lipids | Lipid composition (in percent of total lipids) Phospholipids (mongrel female rats; 0.0005 mg/kg): 23.8 ± 1.0 p<0.05% of total lipids | Lipid composition (in percent of total lipids) Triglycerides (mongrel female rats; 0.0005 mg/kg): 35.3 ± 0.7% of total lipids | Cholesterol level, mg/100 ml VLDL-CS (mongrel female rats; 0.05 µg/kg): 17.7 ± 2.0 mg/100 ml | Cholesterol level, mg/100 ml VLDL-CS (mongrel female rats; 0.5 µg/kg): 15.8 ± 1.0 p<0.05 mg/100 ml | Cholesterol level, mg/100 ml LDL-CS (mongrel female rats; 0.05 µg/kg): 19.6 ± 1.4 p<0.01 mg/100 ml | Cholesterol level, mg/100 ml LDL-CS (mongrel female rats; 0.5 µg/kg): 12.0 ± 0.6 mg/100 ml | Cholesterol level, mg/100 ml HDL-CS (mongrel female rats; 0.05 µg/kg): 52.3 ± 2.9 mg/100 ml | Cholesterol level, mg/100 ml total-CS (mongrel female rats; 0.05 µg/kg): 89.5 ± 3.8 mg/100 ml | TG level, mg/100ml (mongrel female rats; 0.05 µg/kg): 88.0 ± 10.2 mg/100ml | Cholesterol level, mg/100 ml HDL-CS (mongrel female rats; 0.5 µg/kg): 59.3 ± 2.6 mg/100 ml | Cholesterol level, mg/100 ml total-CS (mongrel female rats; 0.5 µg/kg): 87.0 ± 2.6 mg/100 ml | TG level, mg/100ml (mongrel female rats; 0.5 µg/kg): 78.6 ± 5.4 p<0.05 mg/100ml | ALT, nM/dl (mongrel female rats; daily dose 0.05 mg/kg): 624 ± 31 nM/dl | AST, nM/dl (mongrel female rats; daily dose 0.05 mg/kg): 478 ± 26 nM/dl | ALT, nM/dl (mongrel female rats; daily dose 0.50 mg/kg): 609 ± 42 nM/dl | AST, nM/dl (mongrel female rats; daily dose 0.50 mg/kg): 522 ± 33 nM/dl | Hepatic MDA, nM/l (mongrel female rats; 0.05 mg/kg): 5.00 ± 0.15 p<0.05 nM/l | Serum MDA, nM/l (mongrel female rats; 0.05 mg/kg): 5.86 ± 0.70 nM/l | Hepatic MDA, nM/l (mongrel female rats; 0.50 mg/kg): 4.60 ± 0.52 p<0.05 nM/l | Serum MDA, nM/l (mongrel female rats; 0.50 mg/kg): 5.77 ± 0.15 p<0.05 nM/l | blasttranformation reaction of human lymphocytes induced by ConA (Human lymphocytes): stimulating effect | Radioactivity, number of pulses for 20 seconds (Human lymphocytes; 10^-3 M/l, +ConA): 680 ± 82 number of pulses for 20 seconds | Stimulation index (Human lymphocytes; 10^-3 M/l, +ConA): 2.06 | Radioactivity, number of pulses for 20 seconds (Human lymphocytes; 10^-3 M/l, no mitogen): 330 ± 105 number of pulses for 20 seconds | Radioactivity, number of pulses for 20 seconds (Human lymphocytes; 10^-4 M/l, +ConA): 1197±97 number of pulses for 20 seconds | Stimulation index (Human lymphocytes; 10^-4 M/l, +ConA): 4.37 | Radioactivity, number of pulses for 20 seconds (Human lymphocytes; 10^-4 M/l, no mitogen): 274 ± 28 number of pulses for 20 seconds | Radioactivity, number of pulses for 20 seconds (Human lymphocytes; 10^-5 M/l, +ConA): 1562 ± 134 number of pulses for 20 seconds | Stimulation index (Human lymphocytes; 10^-5 M/l, +ConA): 3.34 | Radioactivity, number of pulses for 20 seconds (Human lymphocytes; 10^-5 M/l, no mitogen): 467 ± 109 number of pulses for 20 seconds | Radioactivity, number of pulses for 20 seconds (Human lymphocytes; 10^-6 M/l, +ConA): 1922 ± 248 number of pulses for 20 seconds | Stimulation index (Human lymphocytes; 10^-6 M/l, +ConA): 4.71 | Radioactivity, number of pulses for 20 seconds (Human lymphocytes; 10^-6 M/l, no mitogen): 408 ± 75 number of pulses for 20 seconds | Radioactivity, number of pulses for 20 seconds (Human lymphocytes; 10^-7 M/l, +ConA): 1483 ± 67 number of pulses for 20 seconds | Stimulation index (Human lymphocytes; 10^-7 M/l, +ConA): 3.10 | Radioactivity, number of pulses for 20 seconds (Human lymphocytes; 10^-7 M/l, no mitogen): 478 ± 35 number of pulses for 20 seconds | Radioactivity, number of pulses for 20 seconds (Human lymphocytes; 10^-8 M/l, +ConA): 849 ± 133 number of pulses for 20 seconds | Stimulation index (Human lymphocytes; 10^-8 M/l, +ConA): 3.63 | Radioactivity, number of pulses for 20 seconds (Human lymphocytes; 10^-8 M/l, no mitogen): 234 ± 36 number of pulses for 20 seconds
